{"source": "patent US12071453B2", "about": "“Neuroactive steroids, compositions, and uses thereof” (Sage Therapeutics, Inc., priority 2013, dated 2024)", "key": {"[1]": {"molecular_target": "T1, GABAA receptors composed of the α4β3δ subunits (GABRA4/GABRB3/GABRD) (Homo sapiens, UniProt P28472+P48169)", "T1 construct": "expressed in transfected cells; host or cells: Xenopus laevis oocytes, injected (ratio 5:1:5)", "T1 sequence (P48169 36-554)": "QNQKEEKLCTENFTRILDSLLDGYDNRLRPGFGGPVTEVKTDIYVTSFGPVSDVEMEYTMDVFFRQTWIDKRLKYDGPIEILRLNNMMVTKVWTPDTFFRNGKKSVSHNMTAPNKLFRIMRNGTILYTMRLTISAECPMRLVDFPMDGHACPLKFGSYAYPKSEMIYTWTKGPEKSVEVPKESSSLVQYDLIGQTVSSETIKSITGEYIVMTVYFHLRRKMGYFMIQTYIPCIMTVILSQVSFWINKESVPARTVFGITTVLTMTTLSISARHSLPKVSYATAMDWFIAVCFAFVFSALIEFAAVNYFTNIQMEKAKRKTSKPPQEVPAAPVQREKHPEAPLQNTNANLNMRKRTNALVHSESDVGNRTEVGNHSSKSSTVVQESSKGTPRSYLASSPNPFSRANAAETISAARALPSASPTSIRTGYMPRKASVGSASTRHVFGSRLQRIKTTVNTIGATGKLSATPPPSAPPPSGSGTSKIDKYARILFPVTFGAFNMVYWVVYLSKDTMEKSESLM", "T1 sequence (P28472 26-473)": "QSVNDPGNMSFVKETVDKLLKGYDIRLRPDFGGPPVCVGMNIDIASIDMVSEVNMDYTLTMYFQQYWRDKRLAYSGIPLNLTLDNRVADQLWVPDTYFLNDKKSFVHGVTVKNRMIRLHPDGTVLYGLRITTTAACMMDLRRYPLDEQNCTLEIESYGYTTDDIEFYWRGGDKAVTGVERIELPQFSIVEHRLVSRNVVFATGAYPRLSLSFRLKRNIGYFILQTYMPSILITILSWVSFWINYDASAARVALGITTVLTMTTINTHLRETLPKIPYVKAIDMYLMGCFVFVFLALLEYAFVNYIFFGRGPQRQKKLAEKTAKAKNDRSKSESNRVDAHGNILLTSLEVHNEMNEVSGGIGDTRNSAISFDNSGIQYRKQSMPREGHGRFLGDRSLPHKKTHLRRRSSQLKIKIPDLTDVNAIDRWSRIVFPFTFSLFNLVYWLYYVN", "T1 sequence (O14764 25-452 partner)": "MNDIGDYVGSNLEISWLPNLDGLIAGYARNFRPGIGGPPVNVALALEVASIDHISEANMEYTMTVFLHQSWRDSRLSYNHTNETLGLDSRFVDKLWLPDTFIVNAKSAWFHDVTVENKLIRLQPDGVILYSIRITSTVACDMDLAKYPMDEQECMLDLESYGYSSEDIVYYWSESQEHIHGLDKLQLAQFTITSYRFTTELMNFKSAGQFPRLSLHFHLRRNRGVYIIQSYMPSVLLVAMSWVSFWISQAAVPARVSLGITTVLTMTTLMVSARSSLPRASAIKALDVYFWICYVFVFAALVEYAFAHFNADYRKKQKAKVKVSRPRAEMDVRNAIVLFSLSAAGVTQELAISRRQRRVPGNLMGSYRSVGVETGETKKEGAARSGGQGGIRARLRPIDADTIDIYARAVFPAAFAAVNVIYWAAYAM", "test": "Two Electrode Voltage Clamp (TEVC), GABA receptor potentiation in Xenopus laevis oocytes, α4β3δ", "assay_type": "cell-based", "conditions": "10 μM compound, 3 μM GABA, read-out: GABA (α4β3δ) % efficacy at 10 μM", "method": "(§1) The Two Electrode Voltage Clamp (TEVC) technique was used to investigate the effects of compounds at a concentration of 10 μM on GABAA receptors composed of the α1β2γ2 or α4β3δ subunits expressed in oocytes from the Xenopus laevis. GABA-evoked currents were recorded from oocytes that expressed the GABA receptors and the modulatory effects of the test items on these currents were investigated.\n(§2) Ovaries were harvested from Xenopus laevis females that had been deeply anesthetized by cooling at 4° C. and immersion in Tricaine methanesulfonate (MS-222 at a concentration of 150 mg/L) in sodium bicarbonate (300 mg/L). Once anesthetized the animal was decapitated and pithed following the rules of animal rights from the Geneva canton. A small piece of ovary was isolated for immediate preparation while the remaining part was placed at 4° C. in a sterile Barth solution containing in mM NaCl 88, KCl 1, NaHCO3 2.4, HEPES 10, MgSO4·7H2O 0.82, Ca(NO3)2·4H2O 0.33, CaCl2·6H2O 0.41, at pH 7.4, and supplemented with 20 μg/ml of kanamycin, 100 unit/ml penicillin and 100 μg/ml streptomycin. All recordings were performed at 18° C. and cells were super-fused with medium containing in mM: NaCl 82.5, KCl 2.5, HEPES 5, CaCl2·2H2O, ·6H2O 1, pH 7.4.\n(§3) Plasmids containing the RNAs of the human GABRA1/GABRB2/GABRG2 and GABRA4/GABRB3/GABRD genes were injected into oocytes using a proprietary automated injection device (Hogg el al., J. Neurosci. Methods, (2008) 169: 65-75). These genes encode for the α1β2γ2 and α4β3δ GABAA subunits respectively. Receptor expression was assessed using electrophysiology at least two days later. The ratio of RNA injection for α1β2γ2 was 1:1:1 and for α4β3δ was 5:1:5. Electrophysiological recordings were made using an automated process equipped with standard TEVC and data were captured and analyzed using a proprietary data acquisition and analysis software running under Matlab (Mathworks Inc.). The membrane potential of the oocytes was maintained at −80 mV throughout the experiments. To explore the effects of proprietary compounds, currents were evoked by applying 10 μM (α1β2γ2) or 3 μM (α4β3δ) GABA for 30 s. These concentrations approximated the EC50 concentration of GABA at each receptor subtype. Oocytes were then re-exposed to GABA again for 30 s. 15 s after beginning the GABA application, test article was co-applied at a concentration of 10 μM for 15 s. Potentiation of the peak current was assessed. Data was filtered at 10 Hz, captured at 100 Hz and analyzed using proprietary data acquisition and analysis software running under Matlab (Mathworks Inc.). For statistical analysis values were computed either with Excel (Microsoft) or Matlab (mathworks Inc.). To obtain mean measurements with standard deviations, all experiments were carried out using at least three cells."}, "[2]": {"molecular_target": "T2, GABAA receptors composed of the α1β2γ2 subunits (GABRA1/GABRB2/GABRG2) (Homo sapiens, UniProt P14867+P47870)", "T2 construct": "expressed in transfected cells; host or cells: Xenopus laevis oocytes, injected (ratio 1:1:1)", "T2 sequence (P14867 28-456)": "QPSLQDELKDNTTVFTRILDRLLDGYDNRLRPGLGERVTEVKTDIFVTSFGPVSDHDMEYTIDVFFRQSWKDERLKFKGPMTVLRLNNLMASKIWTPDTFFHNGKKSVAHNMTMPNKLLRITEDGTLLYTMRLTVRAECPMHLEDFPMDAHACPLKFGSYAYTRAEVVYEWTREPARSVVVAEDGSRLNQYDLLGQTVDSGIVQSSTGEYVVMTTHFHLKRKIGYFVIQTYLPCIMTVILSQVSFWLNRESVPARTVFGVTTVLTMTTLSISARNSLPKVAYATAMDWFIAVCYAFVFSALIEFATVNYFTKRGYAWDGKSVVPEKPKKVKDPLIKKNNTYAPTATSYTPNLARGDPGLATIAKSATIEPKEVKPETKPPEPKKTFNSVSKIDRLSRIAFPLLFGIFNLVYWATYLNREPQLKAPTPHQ", "T2 sequence (P47870 26-512)": "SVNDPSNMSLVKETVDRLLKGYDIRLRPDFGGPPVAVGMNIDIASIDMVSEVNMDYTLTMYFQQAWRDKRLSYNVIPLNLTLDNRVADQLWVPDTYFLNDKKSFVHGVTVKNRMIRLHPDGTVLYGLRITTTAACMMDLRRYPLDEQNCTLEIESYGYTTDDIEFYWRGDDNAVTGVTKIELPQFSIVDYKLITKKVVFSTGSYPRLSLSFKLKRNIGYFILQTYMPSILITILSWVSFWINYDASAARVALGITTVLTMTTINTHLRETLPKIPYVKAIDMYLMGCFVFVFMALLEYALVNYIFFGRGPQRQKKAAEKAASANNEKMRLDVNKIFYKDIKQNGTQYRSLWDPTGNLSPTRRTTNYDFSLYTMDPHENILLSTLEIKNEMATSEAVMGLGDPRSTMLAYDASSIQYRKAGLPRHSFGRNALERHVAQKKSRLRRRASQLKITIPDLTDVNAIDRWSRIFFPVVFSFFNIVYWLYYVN", "T2 sequence (P18507 40-475 partner)": "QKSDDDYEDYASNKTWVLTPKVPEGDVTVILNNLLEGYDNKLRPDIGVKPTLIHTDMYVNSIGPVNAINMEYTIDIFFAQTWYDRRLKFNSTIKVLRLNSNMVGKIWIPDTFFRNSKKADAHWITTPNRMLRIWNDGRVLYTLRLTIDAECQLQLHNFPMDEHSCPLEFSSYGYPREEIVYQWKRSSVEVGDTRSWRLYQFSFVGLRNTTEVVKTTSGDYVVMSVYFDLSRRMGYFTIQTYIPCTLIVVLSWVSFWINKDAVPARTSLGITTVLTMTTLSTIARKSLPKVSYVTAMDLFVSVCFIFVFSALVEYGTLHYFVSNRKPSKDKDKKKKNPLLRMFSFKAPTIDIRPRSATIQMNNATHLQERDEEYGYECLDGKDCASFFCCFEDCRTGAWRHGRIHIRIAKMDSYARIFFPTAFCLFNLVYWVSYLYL", "test": "Two Electrode Voltage Clamp (TEVC), GABA receptor potentiation in Xenopus laevis oocytes, α1β2γ2", "assay_type": "cell-based", "conditions": "10 μM compound, 10 μM GABA, read-out: GABA (α1β2γ2) % efficacy at 10 μM", "method": "as §1, §2, §3"}, "[3]": {"molecular_target": "[35S]-TBPS binding in rat brain cortical membranes", "test": "Steroid inhibition of [35S]-TBPS binding, rat brain cortical membranes", "conditions": "3 nM [35S]-TBPS, in the presence of 5 μM GABA, read-out: 35S-TBPS Radioligand Displacement (IC50)", "method": "TBPS binding assays using rat brain cortical membranes in the presence of 5 μM GABA has been described (Gee et al, J. Pharmacol. Exp. Ther. 1987, 241, 346-353; Hawkinson et al, Mol. Pharmacol. 1994, 46, 977-985; Lewin, A. H et al., Mol. Pharmacol. 1989, 35, 189-194).\nBriefly, cortices are rapidly removed following decapitation of carbon dioxide-anesthetized Sprague-Dawley rats (200-250 g). The cortices are homogenized in 10 volumes of ice-cold 0.32 M sucrose using a glass/teflon homogenizer and centrifuged at 1500×g for 10 min at 4° C. The resultant supernatants are centrifuged at 10,000×g for 20 min at 4° C. to obtain the P2 pellets. The P2 pellets are resuspended in 200 mM NaCl/50 mM Na—K phosphate pH 7.4 buffer and centrifuged at 10,000×g for 10 min at 4° C. This washing procedure is repeated twice and the pellets are resuspended in 10 volumes of buffer. Aliquots (100 μL) of the membrane suspensions are incubated with 3 nM [^35S]-TBPS and 5 μL aliquots of test drug dissolved in dimethyl sulfoxide (DMSO) (final 0.5%) in the presence of 5 μM GABA. The incubation is brought to a final volume of 1.0 mL with buffer. Nonspecific binding is determined in the presence of 2 μM unlabeled TBPS and ranged from 15 to 25%. Following a 90 min incubation at room temp, the assays are terminated by filtration through glass fiber filters (Schleicher and Schuell No. 32) using a cell harvester (Brandel) and rinsed three times with ice-cold buffer. Filter bound radioactivity is measured by liquid scintillation spectrometry. Non-linear curve fitting of the overall data for each drug averaged for each concentration is done using Prism (GraphPad). […] The concentration of test compound producing 50% inhibition (IC50) of specific binding and the maximal extent of inhibition (Imax) are determined for the individual experiments with the same model used for the overall data and then the mean±SEM.s of the individual experiments are calculated.\nVarious compounds are or can be screened to determine their potential as modulators of [^35S]-TBPS binding in vitro. These assays are or can be performed in accordance with the above discussed procedures."}}}
{"smiles": "COC[C@]12CC[C@@](C)(O)C[C@@H]1CC[C@H]1[C@@H]3CC[C@H](C(=O)Cn4cc(Cl)cn4)[C@@]3(C)CC[C@@H]12", "note": "[Compound 18]", "values": [{"measurement": "Emax at 10 µM", "setting": "[1]", "result": "1000 to 1500", "unit": "%"}, {"measurement": "Emax at 10 µM", "setting": "[2]", "result": "1000 to 1500", "unit": "%"}]}
{"smiles": "COC[C@]12CC[C@@](C)(O)C[C@@H]1CC[C@H]1[C@@H]3CC[C@H](C(=O)Cn4ccnc4F)[C@@]3(C)CC[C@@H]12", "note": "[Compound 21]", "values": [{"measurement": "Emax at 10 µM", "setting": "[1]", "result": "50 to 500", "unit": "%"}, {"measurement": "Emax at 10 µM", "setting": "[2]", "result": "50 to 500", "unit": "%"}, {"measurement": "IC50", "setting": "[3]", "result": "100 to 500", "unit": "nM"}]}
{"smiles": "CCOC[C@]12CC[C@@](C)(O)C[C@@H]1CC[C@H]1[C@@H]3CC[C@H](C(=O)Cn4nnnc4C)[C@@]3(C)CC[C@@H]12", "note": "[Compound 26]", "values": [{"measurement": "Emax at 10 µM", "setting": "[1]", "result": "1000 to 1500", "unit": "%"}, {"measurement": "Emax at 10 µM", "setting": "[2]", "result": "500 to 1000", "unit": "%"}, {"measurement": "IC50", "setting": "[3]", "result": "50 to 100", "unit": "nM"}]}
{"smiles": "COC[C@]12CC[C@@](C)(O)C[C@H]1CC[C@H]1[C@@H]3CC[C@H](C(=O)Cn4nnc(C)n4)[C@@]3(C)CC[C@@H]12", "note": "[Compound 29]", "values": [{"measurement": "Emax at 10 µM", "setting": "[1]", "result": "500 to 1000", "unit": "%"}, {"measurement": "Emax at 10 µM", "setting": "[2]", "result": "50 to 500", "unit": "%"}, {"measurement": "IC50", "setting": "[3]", "result": "100 to 500", "unit": "nM"}]}
{"smiles": "COC[C@]12CC[C@@](C)(O)C[C@H]1CC[C@H]1[C@@H]3CC[C@H](C(=O)Cn4ccnn4)[C@@]3(C)CC[C@@H]12", "note": "[Compound 32]", "values": [{"measurement": "Emax at 10 µM", "setting": "[1]", "result": "1000 to 1500", "unit": "%"}, {"measurement": "Emax at 10 µM", "setting": "[2]", "result": "50 to 500", "unit": "%"}, {"measurement": "IC50", "setting": "[3]", "result": "50 to 100", "unit": "nM"}]}
{"smiles": "COC[C@]12CC[C@@](C)(O)C[C@H]1CC[C@H]1[C@@H]3CC[C@H](C(=O)Cn4cc(S(C)(=O)=O)cn4)[C@@]3(C)CC[C@@H]12", "note": "[Compound 33]", "values": [{"measurement": "Emax at 10 µM", "setting": "[1]", "result": "50 to 500", "unit": "%"}, {"measurement": "Emax at 10 µM", "setting": "[2]", "result": "50 to 500", "unit": "%"}, {"measurement": "IC50", "setting": "[3]", "result": "10 to 50", "unit": "nM"}]}
{"smiles": "COC[C@]12CC[C@@](C)(O)C[C@@H]1CC[C@H]1[C@@H]3CC[C@H](C(=O)Cn4ncc5ccncc54)[C@@]3(C)CC[C@@H]12", "note": "[Compound 45]", "values": [{"measurement": "Emax at 10 µM", "setting": "[1]", "result": "1000 to 1500", "unit": "%"}, {"measurement": "Emax at 10 µM", "setting": "[2]", "result": "500 to 1000", "unit": "%"}, {"measurement": "IC50", "setting": "[3]", "result": "50 to 100", "unit": "nM"}]}
{"smiles": "COC[C@]12CC[C@@](C)(O)C[C@@H]1CC[C@H]1[C@@H]3CC[C@H](C(=O)Cn4nnc5cccc(F)c54)[C@@]3(C)CC[C@@H]12", "note": "[Compound 47]", "values": [{"measurement": "Emax at 10 µM", "setting": "[1]", "result": "1000 to 1500", "unit": "%"}, {"measurement": "Emax at 10 µM", "setting": "[2]", "result": "500 to 1000", "unit": "%"}, {"measurement": "IC50", "setting": "[3]", "result": "10 to 50", "unit": "nM"}]}
{"smiles": "COC[C@]12CC[C@@](C)(O)C[C@@H]1CC[C@H]1[C@@H]3CC[C@H](C(=O)Cn4nnc5c(F)cccc54)[C@@]3(C)CC[C@@H]12", "note": "[Compound 48]", "values": [{"measurement": "Emax at 10 µM", "setting": "[1]", "result": "50 to 500", "unit": "%"}, {"measurement": "Emax at 10 µM", "setting": "[2]", "result": "500 to 1000", "unit": "%"}, {"measurement": "IC50", "setting": "[3]", "result": "10 to 50", "unit": "nM"}]}
{"smiles": "COC[C@]12CC[C@@](C)(O)C[C@@H]1CC[C@H]1[C@@H]3CC[C@H](C(=O)Cn4nnc5ccc(OC)cc54)[C@@]3(C)CC[C@@H]12", "note": "[Compound 51]", "values": [{"measurement": "Emax at 10 µM", "setting": "[1]", "result": "1000 to 1500", "unit": "%"}, {"measurement": "Emax at 10 µM", "setting": "[2]", "result": "500 to 1000", "unit": "%"}, {"measurement": "IC50", "setting": "[3]", "result": "10 to 50", "unit": "nM"}]}
{"smiles": "COC[C@]12CC[C@@](C)(O)C[C@@H]1CC[C@H]1[C@@H]3CC[C@H](C(=O)Cn4nc5cccc(OC)c5n4)[C@@]3(C)CC[C@@H]12", "note": "[Compound 57]", "values": [{"measurement": "Emax at 10 µM", "setting": "[1]", "result": "500 to 1000", "unit": "%"}, {"measurement": "Emax at 10 µM", "setting": "[2]", "result": "50 to 500", "unit": "%"}, {"measurement": "IC50", "setting": "[3]", "result": "50 to 100", "unit": "nM"}]}
{"smiles": "COC[C@]12CC[C@@](C)(O)C[C@@H]1CC[C@H]1[C@@H]3CC[C@H](C(=O)Cn4nnc5c(OC)cccc54)[C@@]3(C)CC[C@@H]12", "note": "[Compound 58]", "values": [{"measurement": "Emax at 10 µM", "setting": "[1]", "result": "500 to 1000", "unit": "%"}, {"measurement": "Emax at 10 µM", "setting": "[2]", "result": "500 to 1000", "unit": "%"}, {"measurement": "IC50", "setting": "[3]", "result": "< 10", "unit": "nM"}]}
